Like-named read-outs stand apart in the source and are kept apart here.
Tests used:
[1] = target: MMP-13 (Homo sapiens, UniProt P45452); test: MMP-13 inhibition, thiopeptide or fluorescent peptide substrate; format: biochemical; conditions: for IC50: read-out: MMP13 IC50; for inhibition at 10 µM: read-out: MMP13 % @ 10 μM
Method: (§1) The enzyme activity is measured by the rate of the color increase. The thiopeptide substrate is made up fresh as a 20 mM stock in 100% DMSO and the DTNB is dissolved in 100% DMSO as a 100 mM stock and stored in the dark at room temperature. Both the substrate and DTNB are diluted together to 1 mM with substrate buffer (50 mM HEPES pH 7.5, 5 mM CaCl2) before use. The stock of enzyme is diluted with buffer (50 mM HEPES, pH 7.5, 5 mM CaC12, 0.02% Brij) to the desired final concentration.
(§2) Alternatively, a fluorescent peptide substrate is used. In this test procedure, the peptide substrate contains a fluorescent group and a quenching group. Upon cleavage of the substrate by an MMP, the fluorescence that is generated is quantitated on the fluorescence plate reader. The assay is run in HCBC assay buffer (50 mM HEPES, pH 7.0, 5 mM Ca^+2, 0.02% Brij, 0.5% Cysteine), with human recombinant MMP-1, MMP-9, or MMP-13. The substrate is dissolved in methanol and stored frozen in 1 mM aliquots. For the assay, substrate and enzymes are diluted in HCBC buffer to the desired concentrations. Compounds are added to the 96 well plate containing enzyme and the reaction is started by the addition of substrate.
(§3) For either the thiopeptide or fluorescent peptide test procedures, the slope of the line is calculated and represents the reaction rate. […] The mean (x±sem) of the control rate is calculated and compared for statistical significance (p<0.05) with drug-treated rates using Dunnett's multiple comparison test.

[2] = target: T1, MMP-1 (Homo sapiens, UniProt P03956); test: MMP-1 inhibition, thiopeptide or fluorescent peptide substrate; format: biochemical; conditions: Table 1, second part; for inhibition at 10 µM: read-out: MMP1 % @ 10 μM; for IC50: read-out: MMP1 IC50
T1 sequence (P03956 100-469): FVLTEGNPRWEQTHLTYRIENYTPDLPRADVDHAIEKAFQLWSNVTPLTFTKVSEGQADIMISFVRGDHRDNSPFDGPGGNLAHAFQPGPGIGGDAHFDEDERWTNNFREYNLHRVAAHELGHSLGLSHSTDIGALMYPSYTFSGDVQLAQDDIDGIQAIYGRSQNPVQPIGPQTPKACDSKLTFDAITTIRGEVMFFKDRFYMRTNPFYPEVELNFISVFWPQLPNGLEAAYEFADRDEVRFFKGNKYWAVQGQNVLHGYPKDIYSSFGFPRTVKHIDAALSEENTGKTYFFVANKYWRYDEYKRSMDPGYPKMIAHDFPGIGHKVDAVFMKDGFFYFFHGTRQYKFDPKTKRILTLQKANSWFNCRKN
Method: as §1, §2, §3

[3] = system: THP-1 cells (soluble TNF-α); test: Human monocytic THP-1 cell differentiation assay for soluble proteins (THP soluble protein assay); format: cell-based; conditions: negative = less TNF-α; for TNFalpha at 3 uM, THP (percent change): percent change from vehicle positive control; for inhibition at 3 µM: Homo sapiens, THP-1, percent change from vehicle positive control, read-out: TNFalpha at 3 uM, THP (percent change)
From the text: Mitogenic stimulation of THP-1 cells cause differentiation into macrophage like cells with concomitant secretion of tumor necrosis factor (TNF-a) and TNF receptor (TNF-R p75/80 and TNF-R p55/60) and Interleukin-8 (IL-8), among other proteins. […] The release of membrane bound TNF-a and possibly TNF-R p75/80 and TNF-R p55/60, but not IL-8, is mediated by an enzyme called TNF-α converting enzyme or TACE.
THP-1 cells (from ATCC) are a human monocytic cell line which were obtained from the peripheral blood of a person with acute monocytic leukemia They can be grown in culture and differentiated into macrophage like cells by stimulation with mitogens.
Each vial of cells are cultured for about two weeks prior to being used for an assay and then are used for only 4 to 6 weeks to screen compounds.
Cell exposure to DMSO was limited to 0.1% final concentration. […] Compounds can be evaluated for their effect on basal (non-stimulated) shedding of the receptors by replacing the LPS with […] of THP-1 media Plates are placed into an incubator set at 5% CO2 and at 37° C. After 4 hours of incubation, […] of tissue culture supernatant (TCS) is removed for use in an TNF-α ELISA. Following 24 hours of incubation, […] of TCS is removed and used for analysis in TNF-R p75/80, TNF-R p55/60 and IL-8 ELISAs.
In addition, at the 24 hours timepoint, and the cells for each treatment group are collected by resuspension in 500 μl/well of THP-1 media and transferred into a FACS tube. […] The samples are run on a Becton Dickinson FaxCaliber FLOW cytometry machine and the amount of dye taken up by each cell is measured in the high red wavelength (FL3). Only cells with compromised membranes (dead or dying) can take up PI. The percent of live cells is calculated by the number of cells not stained with PI, divided by the total number of cells in the sample. The viability values calculated for the drug treated groups were compared to the viability value calculated for the vehicle treated mitogen stimulated group (“vehicle positive control”) to determine the “percent change from control”. This “percent change from control” value is an indicator of drug toxicity.
The quantity of soluble TNF-α, TNF-R p75/80 and TNF-R p55/60 and IL-8 in the TCS of the ThP-1 cell cultures are obtained with commercially available ELISAs from R&D Systems, by extrapolation from a standard curve generated with kit standards. The number of cells that either take up or exclude PI are measured by the FLOW cytometry machine and visualized by histograms using commercially available Cytologic software for each treatment group including all controls.
Biological variability in the magnitude of the response of THP-1 cell cultures requires that experiments be compared on the basis of percent change from “vehicle positive control” for each drug concentration. Percent change in each soluble protein evaluated from the “vehicle positive control” was calculated for each compound concentration with the following formula: [formula]
For the soluble protein (TNF-a, p75/80, p55/60, IL-8) studies under stimulated conditions, the mean pg/ml of duplicate wells were determined and the results expressed as percent change from “vehicle positive control”. For the soluble protein (p75/80 and p55/60 receptors) studies under non-stimulated conditions, the mean pglml of duplicate wells were determined and the results expressed as percent change from “vehicle positive control” utilizing the following formula: [formula]
IC50 values for each compound are calculated by non-linear regression analysis using customized software utilizing the JUMP statistical package.
For the cell viability studies, the viabilities (PI exclusion) of pooled duplicate wells were determined and the results expressed as % change from “vehicle positive control”.

[4] = target: TNF-α converting enzyme (TACE) (Homo sapiens, UniProt P78536); test: TACE inhibition, fluorescent peptidyl substrate; format: biochemical
TNF-α converting enzyme (TACE), sequence (P78536 215-824): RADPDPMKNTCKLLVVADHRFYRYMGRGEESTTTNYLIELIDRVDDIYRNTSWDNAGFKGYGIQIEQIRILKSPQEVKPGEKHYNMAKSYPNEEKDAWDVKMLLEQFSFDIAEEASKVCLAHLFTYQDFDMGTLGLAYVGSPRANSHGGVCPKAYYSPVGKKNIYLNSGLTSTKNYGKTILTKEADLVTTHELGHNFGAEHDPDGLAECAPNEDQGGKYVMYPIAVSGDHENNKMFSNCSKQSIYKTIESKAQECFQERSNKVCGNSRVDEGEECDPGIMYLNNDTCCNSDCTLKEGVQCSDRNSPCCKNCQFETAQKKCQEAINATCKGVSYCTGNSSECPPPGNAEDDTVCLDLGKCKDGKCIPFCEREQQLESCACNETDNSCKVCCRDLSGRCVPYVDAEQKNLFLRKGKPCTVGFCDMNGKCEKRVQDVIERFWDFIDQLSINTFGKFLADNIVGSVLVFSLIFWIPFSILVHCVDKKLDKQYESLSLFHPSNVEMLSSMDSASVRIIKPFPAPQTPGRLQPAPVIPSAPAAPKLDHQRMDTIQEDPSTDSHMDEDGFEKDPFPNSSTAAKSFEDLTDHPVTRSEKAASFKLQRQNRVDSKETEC
Method: […] The reaction is initiated by addition of a fluorescent peptidyl substrate (final concentration 100 μM) to each well and then shaking on a shaker for 5 sec.
The reaction is read (excitation 340 nm, emission 420 nm) for 10 min. and the increase in fluorescence over time is plotted as a linear line. The slope of the line is calculated and represents the reaction rate.
The mean (x±sem) of the control rate is calculated and compared for statistical significance (p<0.05) with drug-treated rates using Dunnett's multiple comparison test.

[5] = target: MMP-9 (Homo sapiens, UniProt P14780); test: MMP-9 inhibition, thiopeptide or fluorescent peptide substrate; format: biochemical; conditions: for inhibition at 10 µM: read-out: MMP9 % @ 10 μM; for IC50: read-out: MMP9 IC50
MMP-9, sequence (P14780 94-707): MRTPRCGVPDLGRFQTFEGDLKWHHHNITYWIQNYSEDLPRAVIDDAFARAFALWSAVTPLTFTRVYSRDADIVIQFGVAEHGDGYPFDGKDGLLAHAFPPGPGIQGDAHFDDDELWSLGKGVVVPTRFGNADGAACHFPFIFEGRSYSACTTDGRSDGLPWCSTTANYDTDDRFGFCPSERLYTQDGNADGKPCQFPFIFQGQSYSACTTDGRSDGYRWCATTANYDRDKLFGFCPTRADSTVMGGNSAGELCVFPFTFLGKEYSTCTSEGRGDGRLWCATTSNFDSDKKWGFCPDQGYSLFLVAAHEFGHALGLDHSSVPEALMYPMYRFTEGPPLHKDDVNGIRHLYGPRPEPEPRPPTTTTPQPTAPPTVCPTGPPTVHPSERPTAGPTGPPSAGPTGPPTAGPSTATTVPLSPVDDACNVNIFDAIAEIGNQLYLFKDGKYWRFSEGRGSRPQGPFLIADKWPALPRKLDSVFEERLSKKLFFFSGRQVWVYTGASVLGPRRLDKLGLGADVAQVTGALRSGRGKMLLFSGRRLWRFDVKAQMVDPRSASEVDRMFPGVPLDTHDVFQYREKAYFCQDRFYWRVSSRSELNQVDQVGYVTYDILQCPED
Method: as §1, §2, §3

[6] = Table 1, second part, footnote a: IC50 (nM), read-out: TACE IC50

2-{[4-(2-butynyloxy)phenyl]sulfonyl}-2-(4-chlorophenyl)-N-hydroxyacetamide [Example 102]
MMP13 % @ 10 μM ([1]; Table 1, second part): 71% | MMP1 % @ 10 μM [2]: 26% | TNFalpha at 3 uM, THP (percent change) [3]: −10% | IC50 [4, 6]: 82 nM

CC#CCOc1ccc([S+]([O-])[C@@H](C(=O)NO)c2ccc(OC)cc2)cc1 (single isomer, unassigned) [Example 77]
inhibition at 10 µM ([5]; Table 1, second part): 45.4% | IC50 ([1]; Table 1, second part): 3690 nM | inhibition at 10 µM [2]: 17.5% | inhibition at 3 µM [3]: 12% | IC50 [4]: 201 nM

CC#CCOc1ccc([S+]([O-])[C@@H](C(=O)NO)c2ccc(Br)cc2)cc1 (single isomer, unassigned) [Example 87]
inhibition at 3 µM [3]: -5%

CC#CCOc1ccc([S+]([O-])C(C(=O)NO)c2ccccc2)cc1 (single isomer, unassigned) [Example 113, S-2-{[4-(2-butynyloxy)phenyl]sulfinyl}-2-phenyl-N-hydroxyacetamide]
inhibition at 10 µM ([5]; Table 1, second part): 25.7% | inhibition at 10 µM ([1]; Table 1, second part): 59% | inhibition at 10 µM [2]: 6.2% | inhibition at 3 µM [3]: 4% | IC50 [4, 6]: 162 nM

CC#CCOc1ccc(S(=O)(=O)C(CCCCCC)C(=O)NO)cc1 (stereo not drawn) [Example 5, 2-(4-But-2-ynyloxy-benzenelsulfonyl)-octanoic Acid Hydroxamide]
IC50 ([5]; Table 1, first part): 2500 nM | IC50 ([1]; Table 1, first part): 500 nM | IC50 ([4]; Table 1, first part, read-out: TACE IC50): 74.8 nM

CC#CCOc1ccc([S+]([O-])C(C(=O)NO)c2cccc3ccccc23)cc1 (stereo not drawn) [Example 93, 2-{[4-(2-Butynyloxy)phenyl]sulfinyl}-N-hydroxy-2-(1-napthyl)acetamide]
MMP13 % @ 10 μM ([1]; Table 1, second part): 17% | MMP1 % @ 10 μM [2]: 7% | TNFalpha at 3 uM, THP (percent change) [3]: 1% | TACE % @ 10 μM ([4]; Table 1, second part, footnote a: % @ 10 μM): 15.63%

CC#CCOc1ccc([S+]([O-])C(C(=O)NO)c2ccc(F)cc2)cc1 (stereo not drawn) [Example 96]
inhibition at 10 µM ([5]; Table 1, second part): 0% | inhibition at 10 µM ([1]; Table 1, second part): 53.4% | inhibition at 10 µM [2]: 18.4% | inhibition at 3 µM [3]: 12% | IC50 [4, 6]: 148 nM

CC#CCOc1ccc(SC(C(=O)NO)c2ccc(OCC)cc2)cc1 (stereo not drawn) [Example 100, 2-{[4-(2-butynyloxy)phenyl]sulfanyl}-N-hydroxy-2-(4-ethoxyphenyl)acetamide]
inhibition at 3 µM [3]: 0%

CC#CCOc1ccc([S+]([O-])C(C(=O)NO)c2ccc(OCC)cc2)cc1 (stereo not drawn) [Example 101, 2-{[4-(2-Butynyloxy)phenyl]sulfinyl}-N-hydroxy-2-(4-ethoxyphenyl)acetamide]
inhibition at 3 µM [3]: -1%

CC#CCOc1ccc(SC(C(=O)NO)c2cccc(Br)c2)cc1 (stereo not drawn) [Example 103, 2-{[4-(2-Butynyloxy)phenyl]sulfanyl}-N-hydroxy-2-(3-bromophenyl)acetamide]
inhibition at 3 µM [3]: -15%

CC#CCOc1ccc([S+]([O-])[C@@H](C(=O)NO)C(C)C)cc1 (stereo partly drawn) [Example 108, R-2-{[4-(2-butynyloxy)phenyl]sulfinyl}-2-isopropyl-N-hydroxyacetamide]
IC50 ([5]; Table 1, second part): 399 nM | IC50 [2]: 6480 nM | TNFalpha at 3 uM, THP (percent change) [3]: −29%

CC#CCOc1ccc([S+]([O-])C(C(=O)NO)C(C)C)cc1 (stereo not drawn) [Example 109, S-2-{[4-(2-butynyloxy)phenyl]sulfinyl}-2-isopropyl-N-hydroxyacetamide]
IC50 ([5]; Table 1, second part): 893 nM | IC50 [2]: 2990 nM | TNFalpha at 3 uM, THP (percent change) [3]: −20%

Reference: patent publication US6825354B2 (Wyeth Holdings Corporation, priority 1999, dated 2004)
